Values of other authors, collected in patent publication US11559485B2 (NANOCOPOEIA, LLC, priority 2020, dated 2023).
Where a name gives a salt, the structure may show the parent alone.

Conditions: low/moderate aqueous solubility and low permeability

BCS class: Class IV
SMILES: Cc1cn(-c2cc(NC(=O)c3ccc(C)c(Nc4nccc(-c5cccnc5)n4)c3)cc(C(F)(F)F)c2)cn1 [Nilotinib monohydrochloride monohydrate]
